Experimental findings from patent US8158792B2, “Spiropiperidines for use as tryptase inhibitors” (Janssen Pharmaceutica N.V., priority 2007, dated 2012) are described below.

The experiment deals with human lung tryptase. Kind of experiment: β-Tryptase In-Vitro Enzyme Assay. The experiment is classed as biochemical. The note with it: human lung tryptase 1 nM, substrate H-D-HHT-Ala-Arg-pNa 500 μM, pH 7.4, room temperature. As to the method:
The β-tryptase assay was conducted with human lung tryptase (Cortex Biochem #CP3033) in an aqueous buffer (10 mM Tris, 10 mM Hepes, 150 mM NaCl, 0.1% PEG 8000, pH 7.4) using the chromogenic substrate H-D-HHT-Ala-Arg-pNa. […] Percent inhibition was calculated by comparing the initial reaction velocity of samples without inhibitor to those with inhibitor. The initial reaction velocities were analyzed using Microsoft Excel.

Regarding `NCc1ccc2c(c1)C1(CCN(C(=O)c3ccc(C#Cc4ccccc4)o3)CC1)CN2C(=O)c1nnn[nH]1` [Cpd 334, 1-(5-phenylethynyl-furan-2-yl)carbonyl-1′-(1H-tetrazol-5-yl)carbonyl-5′-aminomethyl-spiro[piperidine-4,3′-(2H)-indole]], the IC50 – broadly, the concentration that inhibits the measured activity by half – turned out to be 47 nM. With `NCc1ccc2c(c1)C1(CCN(C(=O)c3ccc(C#Cc4ccccc4)o3)CC1)CN2C(=O)CS(=O)(=O)O` [Cpd 335, 1-(5-phenylethynyl-furan-2-yl)carbonyl-1′-(hydroxysulfonylmethyl)carbonyl-5′-aminomethyl-spiro[piperidine-4,3′-(2H)-indole]], the IC50 turned out to be 20 nM. Next, `Cn1cnc(S(=O)(=O)N2CC3(CCN(C(=O)c4ccc(C#Cc5ccccc5)o4)CC3)c3cc(CN)ccc32)c1` [Cpd 336, 1-(5-phenylethynyl-furan-2-yl)carbonyl-1′-(1-methyl-imidazol-4-yl)sulfonyl-5′-aminomethyl-spiro[piperidine-4,3′-(2H)-indole]]: 28 nM; `NCc1ccc2c(c1)C1(CCN(C(=O)c3ccc(C#Cc4ccccc4)o3)CC1)CN2S(=O)(=O)c1ccc(C(=O)O)o1` [Cpd 337, 1-(5-phenylethynyl-furan-2-yl)carbonyl-1′-(5-carboxy-furan-2-yl)sulfonyl-5′-aminomethyl-spiro[piperidine-4,3′-(2H)-indole]]: 36 nM.

For the compound `CNNC1CC(S(=O)(=O)N2CC3(CCN(C(=O)c4ccc(C#Cc5ccccc5)o4)CC3)c3cc(CN)ccc32)CS1(=O)=O` (centres unmarked) [Cpd 338, 1-(5-phenylethynyl-furan-2-yl)carbonyl-1′-[5-(N′-methyl-hydrazino)-1,1-dioxo-3,4,5-trihydro-(2H)-thien-3-yl]sulfonyl-5′-aminomethyl-spiro[piperidine-4,3′-(2H)-indole]], 73 nM corresponded to half-maximal inhibition (IC50). With `CC(=O)N1CC2(CCN(C(=O)c3ccc(C#Cc4ccccc4)o3)CC2)c2cc(CN)ccc21` [Cpd 339, 1-(5-phenylethynyl-furan-2-yl)carbonyl-1′-methylcarbonyl-5′-aminomethyl-spiro[piperidine-4,3′-(2H)-indole]] the figure was 15 nM; with `CS(=O)(=O)N1CC2(CCN(C(=O)c3ccc(C#Cc4ccccc4)o3)CC2)c2cc(CN)ccc21` [Cpd 340, 1-(5-phenylethynyl-furan-2-yl)carbonyl-1′-methylsulfonyl-5′-aminomethyl-spiro[piperidine-4,3′-(2H)-indole]], 1.8 nM; with `NCc1ccc2c(c1)C1(CCN(C(=O)c3ccc(C#Cc4ccccc4)o3)CC1)CN2S(=O)(=O)c1ccccc1` [Cpd 341, 1-(5-phenylethynyl-furan-2-yl)carbonyl-1′-phenylsulfonyl-5′-aminomethyl-spiro[piperidine-4,3′-(2H)-indole]], 5.7 nM. On to `NCc1ccc2c(c1)C1(CCN(C(=O)c3ccc(C#Cc4ccccc4)o3)CC1)CN2S(N)(=O)=O` [Cpd 342, 1-(5-phenylethynyl-furan-2-yl)carbonyl-1′-aminosulfonyl-5′-aminomethyl-spiro[piperidine-4,3′-(2H)-indole]], for which the IC50 amounted to 5.2 nM. The IC50 values of the last two compounds are within 1.5-fold of each other. Next, `COC(=O)CN1CC2(CCN(C(=O)c3ccc(C#Cc4ccccc4)o3)CC2)c2cc(CN)ccc21` [Cpd 343, 1-(5-phenylethynyl-furan-2-yl)carbonyl-1′-[(methoxycarbonyl)methyl]-5′-aminomethyl-spiro[piperidine-4,3′-(2H)-indole]]: 23 nM. Next, `COC(=O)c1cccc(S(=O)(=O)N2CC3(CCN(C(=O)c4ccc(C#Cc5ccccc5)o4)CC3)c3cc(CN)ccc32)c1` [Cpd 344, 1-(5-phenylethynyl-furan-2-yl)carbonyl-1′-(3-methoxycarbonyl-phenyl)sulfonyl-5′-aminomethyl-spiro[piperidine-4,3′-(2H)-indole]]: 23 nM; `COC(=O)c1ccc(S(=O)(=O)N2CC3(CCN(C(=O)c4ccc(C#Cc5ccccc5)o4)CC3)c3cc(CN)ccc32)o1` [Cpd 345, 1-(5-phenylethynyl-furan-2-yl)carbonyl-1′-(5-methoxycarbonyl-furan-2-yl)sulfonyl-5′-aminomethyl-spiro[piperidine-4,3′-(2H)-indole]]: 13 nM. Consider `CCCOc1sc(C(=O)N2CCC3(CC2)CN(S(=O)(=O)O)c2ccc(CN)cc23)c(C)c1Br` [Cpd 346, 1-(3-methyl-4-bromo-5-propoxy-thien-2-yl)carbonyl-1′-hydroxysulfonyl-5′-aminomethyl-spiro[piperidine-4,3′-(2H)-indole]], for which the IC50 turned out to be 40 nM.

On to `NCc1ccc2c(c1)C1(CCN(C(=O)c3ccc(C#Cc4ccccc4)o3)CC1)CN2S(=O)(=O)c1csc(C(=O)O)c1` [Cpd 347, 1-(5-phenylethynyl-furan-2-yl)carbonyl-1′-(5-carboxy-thien-3-yl)sulfonyl-5′-aminomethyl-spiro[piperidine-4,3′-(2H)-indole]], for which inhibition was half-maximal at 24 nM (IC50). Next, `CS(=O)(=O)CS(=O)(=O)N1CC2(CCN(C(=O)c3ccc(C#Cc4ccccc4)o3)CC2)c2cc(CN)ccc21` [Cpd 348, 1-(5-phenylethynyl-furan-2-yl)carbonyl-1′-(methylsulfonylmethyl)sulfonyl-5′-aminomethyl-spiro[piperidine-4,3′-(2H)-indole]]: 24 nM. With `CNNC(=O)CS(=O)(=O)N1CC2(CCN(C(=O)c3ccc(C#Cc4ccccc4)o3)CC2)c2cc(CN)ccc21` [Cpd 349, 1-(5-phenylethynyl-furan-2-yl)carbonyl-1′-(N′-methylhydrazino-carbonylmethyl)sulfonyl-5′-aminomethyl-spiro[piperidine-4,3′-(2H)-indole]] the figure was 16 nM. Compound `CSc1sc(C(=O)N2CCC3(CC2)CN(S(=O)(=O)O)c2ccc(CN)cc23)c2ccccc12` [Cpd 350, 1-(3-methylthio-benzo[c]thien-1-yl)carbonyl-1′-hydroxysulfonyl-5′-aminomethyl-spiro[piperidine-4,3′-(2H)-indole]] displayed an IC50 of 25 nM.

In the case of `NCc1ccc2c(c1)C1(CCN(C(=O)c3cc(Br)c(Br)s3)CC1)CN2S(=O)(=O)O` [Cpd 351, 1-(4,5-dibromo-thien-2-yl)carbonyl-1′-hydroxysulfonyl-5′-aminomethyl-spiro[piperidine-4,3′-(2H)-indole]], the concentration for half-maximal inhibition (IC50) was determined as 68 nM. Against the preceding compound, the IC50 is about 2.7-fold higher.

Take `NCc1ccc2c(c1)C1(CCN(C(=O)c3ccc(Cl)c(Cl)c3)CC1)CS2(=O)=O` [Cpd 352, 1-(3,4-dichlorophenyl)carbonyl-5′-aminomethyl-spiro[piperidine-4,3′-(1,1-dioxo-(2H)-benzo[b]thiophene)]]: the midpoint of inhibition, the IC50, lay at 5300 nM. This IC50 lies about 78-fold higher than the previous one. The compound `NCc1ccc2c(c1)C1(CCN(C(=O)c3ccc(Cl)c(Cl)c3)CC1)CS2` [Cpd 353, 1-(3,4-dichlorophenyl)carbonyl-5′-aminomethyl-spiro[piperidine-4,3′-(2H)-benzo[b]thiophene]] showed an IC50 of 37 nM. `NCc1ccc2c(c1)C1(CCN(C(=O)CC(c3ccccc3)c3ccccc3)CC1)CO2` [Cpd 354, 1-(2,2-diphenylethyl)carbonyl-5′-aminomethyl-spiro[piperidine-4,3′-(2H)-benzo[b]furan]] yielded an IC50 of 430 nM.

On to `NCc1ccc2c(c1)C1(CCN(C(=O)CC3c4ccccc4-c4ccccc43)CC1)CO2` [Cpd 355, 1-(9H-fluoren-9-ylmethyl)carbonyl-5′-aminomethyl-spiro[piperidine-4,3′-(2H)-benzo[b]furan]], for which half-maximal inhibition (IC50) required 290 nM. For the compound `Cc1ccsc1/C=C/C(=O)N1CCC2(CC1)COc1ccc(CN)cc12` [Cpd 356, (E)-1-(3-methyl-thien-2-ylethenyl)carbonyl-5′-aminomethyl-spiro[piperidine-4,3′-(2H)-benzo[b]furan]], the IC50 worked out at 180 nM. Take `NCc1ccc2c(c1)C1(CCN(C(=O)c3cc(-c4ccc(Cl)cc4)cs3)CC1)CO2` [Cpd 357, 1-[4-(4-chloro-phenyl)-thien-2-yl]carbonyl-5′-aminomethyl-spiro[piperidine-4,3′-(2H)-benzo[b]furan]]: half-maximal inhibition (IC50) was put at 280 nM. Consider `NCc1ccc2c(c1)C1(CCN(C(=O)c3ccc(C#Cc4ccccc4)o3)CC1)CN2S(=O)(=O)c1cccs1` [Cpd 358, 1-(5-phenylethynyl-furan-2-yl)carbonyl-1′-thien-2-ylsulfonyl-5′-aminomethyl-spiro[piperidine-4,3′-(2H)-indole]], for which the 50% inhibitory concentration (IC50) was 26 nM. In turn, `NCc1ccc2c(c1)C1(CCN(C(=O)c3ccc(C#Cc4ccccc4)o3)CC1)CN2S(=O)(=O)c1ccsc1` [Cpd 359, 1-(5-phenylethynyl-furan-2-yl)carbonyl-1′-thien-3-ylsulfonyl-5′-aminomethyl-spiro[piperidine-4,3′-(2H)-indole]] gave a half-inhibitory concentration (IC50) of 15 nM.
